Test: gradient 5% acetonitrile 3 min, to 50% in 2 min, to 85% in 15 min, held 3 min, 100 µL/min
Conditions: column: Zorbax Extend-C18 2.1 x 50 mm; eluents: water / acetonitrile, 0.1% formic acid
In short: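 In both positive and negative ionization mode, a quadrupole time-of-flight mass spectrometer coupled to HPLC analyzed pure standards run in mixtures of ~100 molecules. The Zorbax Extend-C18 column (2.1 × 50 mm, 1.8 μm) was operated at 100 μL/min with water and acetonitrile, each containing 0.1% formic acid. The dead volume was 40 μL and the dwell volume 900 μL. Retention time came from adduct peaks that were computationally picked and individually inspected by hand.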

RP-LC retention time	Compound
697 s	CC(=O)N1c2ccc(S(=O)(=O)N3CCOCC3)cc2CC1C(=O)N1CCCCC1 (configuration not stated)
863 s	COC(=O)c1ccccc1NC(=O)Cn1nc2nc(N3CCCC(C)C3)ccn2c1=O (configuration not stated)
817 s	COC(=O)c1ncn2c1C(=O)N(c1ccc(C(C)C)cc1)C(C)(C(=O)NC1CCCC1)C2 (configuration not stated)
888 s	O=C(NCc1ccco1)C1CCCN(S(=O)(=O)Cc2ccc(Cl)cc2)C1 (configuration not stated)
1080 s	COc1ccccc1C(=O)NC1(C(F)(F)F)C(=O)N(C2CCCCC2)C(C)=C1C(C)=O (configuration not stated)
686 s	CCc1ccccc1NC(=O)N1CC(n2cnnc2-c2ccccc2)C1
964 s	COc1cccc(N2CCN(c3ccnc(SCC(=O)Nc4cc(Cl)ccc4OC)n3)CC2)c1
770 s	Cc1[nH]c(C(=O)N2CCCC(C(=O)NC(C)C)C2)c(C)c1C(=O)OC(C)C (configuration not stated)
732 s	COc1ccc(OC)c(NC(=O)CN2CCN(Cc3ccccc3)C(=O)C2=O)c1
774 s	CCNC(=O)N1CCCC(c2cccc(C(=O)NCc3ccc(C)o3)c2)C1 (configuration not stated)
726 s	CCOc1nccnc1NC1CCN(C(=O)c2ccc(C)s2)CC1
736 s	CCN1C(=O)Cc2cc(C(=O)NC3CCCCC3)ccc21
661 s	O=C(NCCn1nnc2cc(C(=O)N3CCCCC3)ccc21)NC1CCCC1
627 s	CSc1cccc(NC(=O)Cc2csc(NC(=O)C3CCC(=O)N3)n2)c1 (configuration not stated)
669 s	COc1cccc(-c2ccc3nc(N4CCC(C(=O)NCCN(C)C)CC4)sc3n2)c1
643 s	COCCC(=O)N1CCCCC1c1nncn1Cc1ccccc1 (configuration not stated)
942 s	CC(C)NC(=O)C1CCN(c2nc3ccc(-c4cccc(F)c4)nc3s2)CC1
572 s	Cn1c(CC2CCN(C(=O)c3ccccc3Cl)C2)nc2cccnc21 (configuration not stated)

RP-LC retention time	Compound
841 s	Cc1ccc(CN2CCN(C3CCN(C(=O)Nc4ccc5c(c4)OCO5)CC3)C2=O)cc1
875 s	COc1ccc(-c2cn3c(CC(=O)N(Cc4cccs4)C4CCCC4)csc3n2)cc1OC
973 s	CCN1CCCc2cc(C(=O)NCc3ccc(OC)cc3OC)sc21
924 s	Cc1oc(-c2ccc(NC(=O)C3CCCCC3)cc2)nc1Cn1cccn1
754 s	CC1(C(=O)NCc2ccc3c(c2)OCO3)CCN(C(=O)c2ccc(C#N)cc2)CC1
550 s	Cc1noc(C)c1CN1CCN(C(=O)Cn2c(=O)oc3ccccc32)CC1
618 s	CC(C)NC(=O)N1CCC2(CC1)NCCc1c2[nH]c2ccccc12
722 s	CCCNC(=O)c1ncn2c1C(=O)N(C1CC1)C(C)(C(=O)NCc1ccccc1Cl)C2 (configuration not stated)
702 s	CCN1C(=O)c2cccnc2Sc2cc(CNC(=O)c3ccoc3)ccc21
685 s	O=C(NC1CC1)[C@@H]1C[C@H](Oc2ccccc2)CN1C(=O)c1n[nH]c(=O)c2ccccc12
1190 s	COc1ccc(N2CCN(c3cc(SCC(=O)Nc4cccc(Cl)c4F)ncn3)CC2)cc1
751 s	CN(C)C(=O)c1cc2c(s1)CCC(C(=O)NC1CCCCCC1)C2 (configuration not stated)
684 s	Cn1c(=O)sc2cc(S(=O)(=O)N3CCC(C(=O)Nc4ccccn4)CC3)ccc21
640 s	CCC(=O)N1CCc2c(c(C(=O)N3CCC(C(=O)NCc4ccc(OC)cc4)CC3)nn2C)C1
856 s	O=C(C1=NN(Cc2cccc(Cl)c2)c2ccccc2S1(=O)=O)N1CCOCC1
1000 s	Cc1ccc(C)c2sc(OC3CCN(C(=O)c4ccc(S(C)(=O)=O)cc4)CC3)nc12
1060 s	CCOC(=O)COc1cc(-c2ccc(C)cc2)nc2ccc(NC(=O)C3CCC3)cc12

Second part, the molecule before the results:

Compound	RP-LC retention time
CCc1ccc(CNC(=O)Cc2nnc(-c3ccc4ncccc4c3)o2)cc1	758 s
COC1(C2=NCCN2)COc2ccccc2O1 (configuration not stated)	581 s
CC(C)NC(=O)Cn1nc2c3cc(-c4ccc(F)cc4)nn3ccn2c1=O	785 s
Nc1ccc(CCN2CCN(c3cccc(C(F)(F)F)c3)CC2)cc1	633 s
COC(=O)c1cccc(Nc2c(-c3cccc(Br)c3)nc3cnccn23)c1	918 s
CCOC(=O)c1cccc(Nc2c(-c3ccc(C(=O)OC)cc3)nc3cnccn23)c1	902 s
CCN1C(=O)c2cccc3c(S(=O)(=O)Nc4cccc(C)n4)ccc1c23	635 s
Cc1noc(C2CN(C(=O)c3ccc(F)c(F)c3)CC23CCOCC3)n1 (configuration not stated)	710 s
Cc1nnc(-c2ccc(S(=O)(=O)N3CCCCCC3)o2)o1	834 s
CC(O)(CCc1ccccc1)CNC(=O)c1ccc(F)cc1 (configuration not stated)	758 s
COCCNC(=O)COc1nc(C)nc2onc(-c3ccc(F)cc3)c12	782 s
CCOC(=O)c1c(C)oc2nc(C)nc(NCCCN(CC)c3cccc(C)c3)c12	812 s
CN1C(=O)COc2ccc(-c3csc(NC(=O)c4cccc(Br)c4)n3)cc21	1060 s
CC(C)CCNC(=O)Cn1cccc(-c2nc(-c3ccc(F)cc3)no2)c1=O	860 s
O=C(Cn1cnc2c(sc3nc(-c4ccccc4)ccc32)c1=O)Nc1ccccc1	986 s
COc1ccc(Br)cc1Cn1nnc(C(=O)NCc2ccco2)c1N	791 s

Compound	RP-LC retention time
Cc1cccc(N2CC(C(=O)NC3CCCC3)CC2=O)c1 (configuration not stated)	767 s
CCCNC(=O)c1nc(Nc2ccc(F)cc2)c2ccccc2n1	746 s
Cn1nccc1-c1cccc(-c2noc(Cc3ccc(F)cc3)n2)c1	1040 s
CC(=O)N1c2ccccc2CC1c1nc(C2CC2)no1 (configuration not stated)	820 s
Fc1cccc(-c2noc(-c3cc(N4CCOCC4)nc4ccccc34)n2)c1	1240 s
C=CCn1c(=O)c2ccccc2n(Cc2nc(-c3ccccc3OCC)no2)c1=O	1000 s
CSc1ccc(-c2nc3cnccn3c2Nc2cccc(C(N)=O)c2)cc1	684 s
Cc1nc(-c2cccc(-c3noc(COc4ccc(F)cc4)n3)c2)cs1	1200 s
Cc1nnc(-c2cccc(Cl)c2)nc1NC(C)C	717 s
CNC(=O)N1CCCC(Cn2cnc3cccnc32)C1 (configuration not stated)	574 s
CC(NC(=O)Cn1c(=O)n(-c2ccc(F)cc2)c2ncccc21)c1ccccn1 (configuration not stated)	627 s
O=C(Nc1cc(F)ccc1F)NC1CCN(c2cc(N3CCCC3)cnn2)C1 (configuration not stated)	681 s
CCOC(=O)CSc1nc2c(sc3ccccc32)c(=O)n1Cc1ccco1	1040 s
Cc1ccc(N2C(=O)CN(Cc3ccco3)[C@H]3CS(=O)(=O)C[C@H]32)cc1	737 s
CC1(C)CC(=O)c2cn(-c3ccc(F)cc3)c(=O)c(C(=O)Nc3ccc4c(c3)OCCO4)c2C1	1000 s
COc1ccc(-c2cn3ccn(-c4cc(C)cc(C)c4)c(=O)c3n2)cc1OC	797 s
